Where a SMILES comes first, the peptide text is derived from it. Side-chain parts run from the residue outwards. [ ]: non-standard residue; d: D form. The star is where a group is joined. Cbz = O=C(OCc1ccccc1)*
System: Pancreatic juice secretion of the rat
Experiment: Pancreatic juice secretion of the rat after subcutaneous administration of secretin with depot bodies
Type: in vivo
Conditions: for Δ% vs. control (percentage by which the pancreatic secretion is above the basal secretion after 5 hours) / Rel. Intensity of effect over 5 hours (total pancreatic juice secretion over 5 hours as compared with control): rat, subcutaneous, 5 CU/kg secretin + 10 mg depot body/animal; for Δ% vs. control (percentage by which the pancreatic secretion is above the basal secretion after 5 hours): control=100%, measure of depot effect; for Rel. Intensity of effect over 5 hours (total pancreatic juice secretion over 5 hours as compared with control): control (0.9% of NaCl)=1
Method: Secretin preparations for subcutaneous application which contained the depot bodies specified in the following Table were tested in animal experiments. In the experimental procedure chosen, 5 to 8 male rats weighing 300 to 500 g each are administered subcutaneously 5 CU/kg of secretin (CU means clinical unit) and 10 mg of the depot body to be tested each in aqueous solution or suspension.
The animals remain without food for 18 hours prior to the test, but they are given water ad libitum. Under urethane anaesthesia (5 ml/kg i.m. of 25% urethane) the abdomen is opened by median section after tracheotomy, and the pylorus is ligated. The ductus choledochus is tied off in its proximal part near the porta hepatis, and the bile is led into the duodenum via a polyethylene tube of a diameter of […]. A cannula or catheter is inserted into the distal part of the bile duct, into which the numerous pancreatic ducts open, immediately before it opens into the duodenum, and the volume of the secretion running off is measured in 60 minute intervals. Following a preliminary run of 60 minutes the preparations are administered.
L means the compound known from literature and characterized by the melting point, optionally UV, IR or NMR. A to C relate to the preparation according to Example 1, process A to C. These compounds were characterized by ultimate analysis. The third column indicates the percentage by which the pancreatic secretion is above the basal secretion after 5 hours (calculated on the control=100%). This value is a measure for the depot effect of the depot body tested. Column 4 indicates the intensification of the secretin effect, with the total pancreatic juice secretion having been given over 5 hours as compared with the control (0.9% of NaCl)=1.

Row | Compound | Δ% vs. control (percentage by which the pancreatic secretion is above the basal secretion after 5 hours) [%] | Rel. Intensity of effect over 5 hours (total pancreatic juice secretion over 5 hours as compared with control) | protracted and intensified action of secretin (in words) (subcutaneous secretin preparations with depot body)
1 | O=C(NCCNC(=O)c1ccc(O)cc1O)c1ccc(O)cc1O [Bis-(2,4-dihydroxybenzoyl-)-diaminoethane] | 69 | 6.5 | 
2 | O=C(N[C@@H](Cc1ccc(O)cc1)C(=O)NCCCC[C@H](NC(=O)[C@H](Cc1ccc(O)cc1)NC(=O)c1cc(O)cc(O)c1)C(=O)N(CCO)CCO)c1cc(O)cc(O)c1 [Nα,Nε-Bis(3,5-dihydroxybenzoyl-L-tyrosyl)-L-lysine-diethanol-amide] | 86 | 8.8 | 
3 | O=C(N[C@@H](Cc1ccc(O)cc1)C(=O)NCCCC[C@@H](NC(=O)[C@H](Cc1ccc(O)cc1)NC(=O)OCc1ccccc1)C(=O)O)OCc1ccccc1 [Nα,Nε-Bis-(benzyloxycarbonyl-L-tyrosyl)-D-lysine] (Cbz-Tyr-[dK]([Tyr-Cbz])-OH) | 13 | 1.5 | 
4 | NC(=O)[C@H](CCCCNC(=O)[C@H](Cc1ccc(O)cc1)NC(=O)OCc1ccccc1)NC(=O)[C@H](Cc1ccc(O)cc1)NC(=O)OCc1ccccc1 [Nα,Nε-Bis-(benzyloxycarbonyl-L-tyrosyl)-L-lysine-amide] (Cbz-Tyr-Lys([Tyr-Cbz])-NH2) | 90 | 8.4 | 
5 | COC(=O)[C@H](CCCCNC(=O)[C@H](Cc1ccc(O)cc1)NC(=O)OCc1ccccc1)NC(=O)[C@H](Cc1ccc(O)cc1)NC(=O)OCc1ccccc1 [Nα,Nε-Bis-(benzyloxycarbonyl-L-tyrosyl)-L-lysine-methyl ester] (Cbz-Tyr-Lys([Tyr-Cbz])-OMe) | 93 | 8.2 | 
6 | O=C(N[C@@H](Cc1ccc(O)cc1)C(=O)NCCCC[C@H](NC(=O)[C@H](Cc1ccc(O)cc1)NC(=O)OCc1ccccc1)C(=O)O)OCc1ccccc1 [Nα,Nε-Bis-(benzyloxycarbonyl-L-tyrosyl)-L-lysine] (Cbz-Tyr-Lys([Tyr-Cbz])-OH) | 48 | 7.0 | 
7 | Oc1ccccc1 [Phenol] | 51 | 8 | clearly evident
8 | O=C(CCc1ccc(O)cc1)c1c(O)cc(O)cc1O [Phloretin] | 180 | 8.2 | 
9 | Oc1cc(O)cc(O)c1 [Phloroglucine] | 15 | 6.6 | 
10 | Oc1cccc(O)c1O [Pyrogallol] | 41 | 5.1 | 
11 | Oc1cccc(O)c1 [Resorcinol] | 55 | 6.1 | 
12 | O=C(NCCN(CCN(CCNC(=O)c1c(O)cccc1O)C(=O)c1c(O)cccc1O)C(=O)c1c(O)cccc1O)c1c(O)cccc1O [Tetra-(2,6-dihydroxybenzoyl)-triethylene-tetramine] | 78 | 8.1 | 
13 | O=C(NCCN(CCN(CCNC(=O)c1ccccc1O)C(=O)c1ccccc1O)C(=O)c1ccccc1O)c1ccccc1O [Tetra-(2-hydroxybenzoyl)-triethylene-tetramine] | 91 | 9.0 | 

Source: patent US4302448A, “Secretin preparations with intensified and protracted action, process for their manufacture, their use as well as dihydroxybenzoyl-L-tyrosine” (Hoechst Aktiengesellschaft, priority 1979, dated 1981)
